Experimental data: US20250127845A1, “MEDICINAL USES OF OLIGOPEPTIDES IN COMBINATION WITH AN ANTIANDROGEN” (HBC IMMUNOLOGY INC., priority 2022, published 2025)
“And” between values parts separate entries of the source, which are not always exact repeats. Equal entries are not always repeated.

Tests used:
Format in all cases: cell-based, human
[1] = test system: ferritin heavy chain 1 (FTH1) mRNA; assay: FTH1 gene expression by qRT-PCR in LNCaP cells
Method: (§1) Gene Expression. LNCaP, PC-3, VCaP, and VCaP-EnzR cells were seeded in 24-well plates and maintained in RPMI1640 medium supplemented with 2 mmol/L L-glutamine. 100 U/mL penicillin, […] streptomycin, and 10% heat-inactivated fetal bovine serum at 37° C. in a humidified 5% CO2 atmosphere. […] SPH absent wells (DMSO 0.04%) were used as the negative control. All experiments were run in triplicate.
(§2) Samples were studied for expression of the ferritin heavy chain 1 (FTH1) and transferrin receptor 1 ([…]) genes. Total RNA was extracted from cell pellets using the UPzol reagent (Biotechrabbit), followed by DNAse treatment (DNAse TURBO) according to the manufacturers' protocols. Complementary DNA (cDNA) was synthesized with the High Capacity cDNA Reverse Transcription Kit (Applied Biosystems) using random hexamers. Gene expression levels were measured by qRT-PCR.
(§3) 1 μl of cDNA (corresponding to 50 ng of reverse transcribed RNA) was amplified by Qpcr (QuantStudio™ 6 Flex Real-Time PCR System), using TaqMan™ Universal PCR Master Mix (Catalog No. 4304437) and a TaqMan™ assay (Roche Molecular Systems, Inc., Pleasanton, CA). FTH1 and TFRC gene expression was estimated relative to expression of the housekeeping gene, beta-actin (ACTB), following the standard formula: 2-ΔCt. TaqMan probe IDs used include: (i) FTH1, Hs01694011_s1; (ii) TFRC, Hs00951083_m1; and (iii) ACTB, Hs01060665_g1. […]

[2] = test system: transferrin receptor 1 (TFRC) mRNA; assay: TFRC gene expression by qRT-PCR in LNCaP cells
Method: as §1, §2, §3

[3] = test system: transferrin receptor 1 (TFRC) mRNA; assay: TFRC gene expression by qRT-PCR in PC3 cells
Method: as §1, §2, §3

[4] = test system: ferritin heavy chain 1 (FTH1) mRNA; assay: FTH1 gene expression by qRT-PCR in PC3 cells
Method: as §1, §2, §3

[5] = test system: PC3 cells; assay: Clonogenic assay, PC3 cells; settings: for decrease in survival compared to 10 μM bicalutamide monotreatment: 10 μM oligopeptide with 10 μM bicalutamide
Method: (§4) Test Solutions. SPH test solutions were prepared by adding 10 μg, 40 μg, or 160 μg of SPH powder to 1 ml of DMEM containing 0.3% FBS+2% DMSO and sonicating for 10 min just prior to use. Bicalutamide, referred to herein as BIC, (Sigma-Aldrich, Catalog No. B9061) test solutions were prepared by adding 0.43 or 4.3 μg to 1 ml (1 μM and 10 μM) of DMEM containing 0.3% FBS+2% DMSO and sonicating for 10 min just prior to use.
(§5) Cell Culture. The C4 subline (CRL-3313™, RRID: CVCL 4783), which was derived from the human prostate carcinoma cell line LNCaP, was obtained from ATCC (Manassas, VA). C4, which is referred to herein as LNCaP, is an exemplary androgen receptor-positive (AR+ve) cell line that has an epithelial-like morphology and a low metastatic potential. The PC-3 cell line (CRL-1435, RRID: CVCL_0035) was obtained from ATCC (Manassas, VA). PC-3 is an exemplary androgen receptor-negative (AR−ve) cell line that has an epithelial morphology and a high metastatic potential. The Vertebral-Cancer of the Prostate (VCaP) cell line was obtained from Sigma-Aldrich, USA (Catalog No. 06020201). VCaP is a human cell line with an epithelial morphology that was established from a metastatic prostate cancer lesion (Korenchuk et al., In Vivo, 15(2):163˜168, 2001). VCaP cells are androgen receptor-positive and express high levels of prostate-specific antigen. The VCaP-EnzR cell line was also obtained from Sigma-Aldrich, USA (Catalog No. SCC421). […] VCaP-EnzR cells are enzalutamide-resistant and therefore are a suitable model for studying castration-resistant prostate cancer. All cell lines were cultured in RPMI1640 supplemented with 2 mmol/L L-glutamine. 100 U/mL penicillin, […] streptomycin, and 10% heat-inactivated fetal bovine serum. All cells were certified negative for Mycoplasma.
(§6) Clonogenic Assay. Confluent cells were trypsinized and seeded at densities ranging from 3000 to 5000 cells in 10 cm Petri dishes, depending on the cell line, as recommended in the ATCC or Sigma-Aldrich product sheets. […] Treatments were applied daily for 5 days without media changes. The colonies were allowed to develop over 12 days, stained with crystal violet and automatically counted using a TC20 Automated Cell Counter (Bio Rad, Hercules, CA). Each assay was internally controlled using untreated cells (cell media+0.1% DMSO). Relative plating efficiencies were expressed as percentages relative to the plating efficiency of untreated cells and reported as the relative percent colony survival value. All experiments were performed in triplicate.
(§7) All oligopeptides were tested in combination with BIC or ENZ in clonogenic assays. […] SPH absent wells (DMSO 0.04%) were used as the negative control. All experiments were run in triplicate.

[6] = test system: LNCaP cells; assay: Clonogenic assay, LNCaP cells; settings: for relative percent colony survival / minimal inhibitory concentration (MIC) of bicalutamide: LNCaP; for minimal inhibitory concentration (MIC) of bicalutamide: concentration that begins to inhibit colony formation
Method: as §4, §5, §6, §7

[7] = test system: VCaP cells; assay: Clonogenic assay, VCaP cells; settings: 10 μM oligopeptide with […] enzalutamide, p<0.01
Method: as §4
(§8) Cell Culture. The C4 subline (CRL-3313™, RRID: CVCL 4783), which was derived from the human prostate carcinoma cell line LNCaP, was obtained from ATCC (Manassas, VA). C4, which is referred to herein as LNCaP, is an exemplary androgen receptor-positive (AR+ve) cell line that has an epithelial-like morphology and a low metastatic potential. The PC-3 cell line (CRL-1435, RRID: CVCL_0035) was obtained from ATCC (Manassas, VA). PC-3 is an exemplary androgen receptor-negative (AR−ve) cell line that has an epithelial morphology and a high metastatic potential. The Vertebral-Cancer of the Prostate (VCaP) cell line was obtained from Sigma-Aldrich, USA (Catalog No. 06020201). […]
(§9) Clonogenic Assay. […] The colonies were allowed to develop over 12 days, stained with crystal violet and automatically counted using a TC20 Automated Cell Counter (Bio Rad, Hercules, CA). […]

[8] = test system: transferrin receptor 1 (TFRC) mRNA; assay: TFRC gene expression by qRT-PCR in VCaP cells; settings: oligopeptide at 10 μM with […] ENZ
Method: as §1, §2, §3

[9] = test system: ferritin heavy chain 1 (FTH1) mRNA; assay: FTH1 gene expression by qRT-PCR in VCaP cells; settings: oligopeptide at 10 μM with […] ENZ
Method: as §1, §2, §3

[10] = test system: transferrin receptor 1 (TFRC) mRNA; assay: TFRC gene expression by qRT-PCR in VCaP-EnzR cells; settings: oligopeptide at 10 μM with […] μM ENZ
Method: as §1, §2, §3

[11] = test system: VCaP-EnzR cells; assay: Clonogenic assay, VCaP-EnzR cells; settings: 10 μM oligopeptide with […] μM enzalutamide, p<0.001
Method: as §4, §8, §9

[12] = test system: ferritin heavy chain 1 (FTH1) mRNA; assay: FTH1 gene expression by qRT-PCR in VCaP-EnzR cells; settings: oligopeptide at 10 μM with […] μM ENZ
Method: as §1, §2, §3

[13] = 1 μM BIC alone, relative to ACTB
[14] = oligopeptide at 10 μM with 0.4 μM BIC
[15] = oligopeptide at 10 μM with 0.4 μM BIC, listed as FT-005-B
[16] = oligopeptide at 10 μM with 10 μM BIC
[17] = oligopeptide at 10 μM with 10 μM BIC, listed as FT-005-B
[18] = oligopeptide at 10 μM with 10 μM BIC, listed as FT-007-B
[19] = oligopeptide at 10 μM with 0.4 μM BIC, listed as FT-006-B
[20] = oligopeptide at 10 μM with 0.4 μM BIC, listed as FT-008-B
[21] = oligopeptide at 10 μM with 10 μM BIC, listed as FT-008-B
[22] = oligopeptide at 10 μM with 10 μM BIC, listed as FT-002-B

| Compound | FTH1 Fold Change, Average [1, 14] | decrease in cell survival compared to […] enzalutamide with 160 SPH [7] | TFRC Fold Change, Average [2, 14] | TFRC Fold Change, Average [8] | TFRC Fold Change, Average [3, 16] | FTH1 Fold Change, Average [4, 16] | FTH1 Fold Change, Average [9] | TFRC Fold Change, Average [10] | relative survival [11] | decrease in survival compared to 10 μM bicalutamide monotreatment ([5]; PC3) | FTH1 Fold Change, Average [12] | also measured |
| --- | --- | --- | --- | --- | --- | --- | --- | --- | --- | --- | --- | --- |
| CC(O)(CS(=O)(=O)c1ccc(F)cc1)C(=O)Nc1ccc(C#N)c(C(F)(F)F)c1 (centres unmarked) [BIC, bicalutamide, reference compound] |  |  |  |  |  |  |  |  |  |  |  | FTH1 Fold Change (single replicates) [1, 13]: 1.0 (2×) and 1.1; FTH1 Fold Change, Average [1, 13]: 1.0; TFRC Fold Change (single replicates) [2, 13]: 1.0 (2×) and 1.2; TFRC Fold Change, Average [2, 13]: 1.1; TFRC Fold Change (single replicates) ([3]; 10 μM BIC alone): 1.0 and 1.1 and 1.2; TFRC Fold Change, Average ([3]; 10 μM BIC alone): 1.1; FTH1 Fold Change (single replicates) ([4]; 10 μM BIC alone): 0.9 and 1.0 and 1.2; FTH1 Fold Change, Average ([4]; 10 μM BIC alone): 1.0; IC50 ([5]; Homo sapiens, PC-3, PC3 clonogenic assay, read-out: IC50 of bicalutamide): 10 µM; relative percent colony survival ([5]; PC3, 10 μM BIC alone): 52%; minimal inhibitory concentration (MIC) of bicalutamide ([5]; PC3, concentration that begins to inhibit colony formation): 10 µM; IC50 ([6]; Homo sapiens, LNCaP clonogenic assay, read-out: IC50 of bicalutamide): 0.4 µM; relative percent colony survival ([6]; 0.5 μM BIC alone): 85%; relative percent colony survival ([6]; 1.0 μM BIC alone): 25%; minimal inhibitory concentration (MIC) of bicalutamide [6]: 1 µM; minimal inhibitory concentration (MIC) of bicalutamide ([6]; listed as bicalutamide): 0.5 µM |
| LDEESGEP [FT-005, synthetic oligopeptide; -B / -E: tested with bicalutamide / enzalutamide] | 2.2 | approximately 40% | 0.6 | 0.6 | 0.6 | 2.1 | 2.3 | 0.5 | 11% | approximately 70% | 3.2 | FTH1 Fold Change (single replicates) [1, 15]: 2.2 (2×) and 2.3; TFRC Fold Change (single replicates) [2, 15]: 0.7 and 0.6 (2×); TFRC Fold Change (single replicates) [3, 17]: 0.7 and 0.5 (2×); FTH1 Fold Change (single replicates) [4, 17]: 2.2 and 2.1 (2×) |
| PREESDKP [FT-007] |  |  |  | 0.8 | 0.7 | 1.9 | 1.9 |  |  |  |  | TFRC Fold Change (single replicates) [3, 18]: 0.6 and 0.8 (2×); FTH1 Fold Change (single replicates) [4, 18]: 1.9 (2×) and 2.0 |
| REESDKPMY [FT-006] | 1.8 |  | 0.9 |  |  |  |  | 0.6 |  |  | 2.6 | FTH1 Fold Change (single replicates) [1, 19]: 1.9 (2×) and 1.6; TFRC Fold Change (single replicates) [2, 19]: 0.9 (2×) and 0.8 |
| REESGEL [FT-008] | 2.0 |  | 0.8 | 0.7 | 0.9 | 1.8 | 2.2 | 0.6 |  |  | 2.5 | FTH1 Fold Change (single replicates) [1, 20]: 1.8 and 1.9 and 2.2; TFRC Fold Change (single replicates) [2, 20]: 0.8 (2×) and 0.9; TFRC Fold Change (single replicates) [8]: 0.7; TFRC Fold Change (single replicates) [3, 21]: 0.8 and 0.9 (2×); FTH1 Fold Change (single replicates) [4, 21]: 1.8 (2×) and 1.9 |
| REESGEP [FT-002, synthetic oligopeptide; -B / -E: tested with bicalutamide / enzalutamide] | 2.0 | approximately 40% | 0.7 | 0.6 | 0.7 | 2.0 | 2.2 | 0.5 | 11% | approximately 70% | 3.6 | FTH1 Fold Change (single replicates) ([1]; oligopeptide at 10 μM with 0.4 μM BIC, listed as FT-002-B): 2.1 (2×) and 1.9; TFRC Fold Change (single replicates) [2, 14]: 0.7; TFRC Fold Change (single replicates) [3, 22]: 0.7 and 0.8 and 0.6; FTH1 Fold Change (single replicates) [4, 22]: 2.0 (2×) and 2.1 |
